In the METLIN SMRT retention time set (Domingo-Almenara et al. 2019):

Assay: gradient 5% acetonitrile 3 min, to 50% in 2 min, to 85% in 15 min, held 3 min, 100 µL/min
Conditions: column: Zorbax Extend-C18 2.1 x 50 mm; eluents: water / acetonitrile, 0.1% formic acid
Outline: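 In both positive and negative ionization mode, a quadrupole time-of-flight mass spectrometer coupled to HPLC analyzed pure standards run in mixtures of ~100 molecules. The Zorbax Extend-C18 column (2.1 × 50 mm, 1.8 μm) was operated at 100 μL/min with water and acetonitrile, each containing 0.1% formic acid. The dead volume was 40 μL and the dwell volume 900 μL. Retention time came from adduct peaks that were computationally picked and individually inspected by hand.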

SMILES	RP-LC retention time [s]
CCn1c(=O)n(CC)c2cc(S(=O)(=O)c3ccccc3)c(NC(C)=O)cc21	715
CCN(CC)c1ncc2c(n1)CCC(C(=O)Nc1ccc(OC)c(F)c1)C2 (centres undefined)	726
COc1ccc(C(C)NC(=O)Cc2cn(C)c3ncccc23)cc1OC (centres undefined)	640
CC(C)NC(=O)CN1CCN(C(=O)Nc2ccc(Cl)cc2)CC1=O	669
C=CCc1cc(C)ccc1OCC(O)Cn1cnc2ccccc21 (centres undefined)	630
CN(C)c1ccc(CNC(=O)C2CCN(c3cncnc3N3CCCCC3)CC2)cc1	564
COc1cccc(CN2CC(=O)N(Cc3ccc(F)cc3)c3ccccc3S2(=O)=O)c1	1100
CCCCN(C)C(=O)C(C)n1nc(C)c2nn(-c3ccccc3)c(-n3cccc3)c2c1=O (centres undefined)	1010
O=C1C=C(Nc2cccnc2)c2ccccc2C1=O	594
Ic1cccc(/C=N/Nc2nc(N3CCOCC3)nc(N(c3ccccc3)c3ccccc3)n2)c1	1140
CC(C)NC(=O)Cn1nc2c3cc(-c4ccc(C(C)C)cc4)nn3ccn2c1=O	911
O=C(Cc1ccsc1)N1CCOc2ccc(N3CCOCC3)cc2C1	743
Cc1cc(N2CCOCC2)n2nc(-c3ccc(C(C)(C)C)cc3)nc2n1	960
CS(=O)(=O)c1ccc2nc(NC(=O)c3csc(-n4cccc4)n3)sc2c1	849
CC(C)N1CCN(C(=O)c2cn(-c3cc(N4CCSCC4)ncn3)cn2)CC1	596
CCOc1ccc(-c2csc3c(=O)n(Cc4cccc(Br)c4)cnc23)cc1OCC	1210
CC(C)n1cnnc1CC1CN(C(=O)Nc2cc(F)cc(F)c2)C1	667
Cc1cc(C)cc(C(=O)NCc2[nH]nc3ccccc23)c1	814
CCCNC(=O)C1CC(=O)N(CCc2c[nH]c3ccc(F)cc23)C1 (centres undefined)	684
COc1cccc(Cn2cccc(S(=O)(=O)N3CCC(C)CC3)c2=O)c1	954
CCn1c(=O)c2ccccc2n(Cc2nc(-c3cc(OC)c(OC)c(OC)c3)no2)c1=O	936
COc1cccc(-c2nnc(Cc3nc(-c4ccncc4)no3)o2)c1	739
CCNC(=O)N1CCc2nc(OCC)ccc2C1	606

SMILES	RP-LC retention time [s]
O=C(c1cc(F)ccc1F)N1CCN(C(=O)c2nnn3c2COC(c2ccccc2)C3)CC1 (centres undefined)	817
Cc1ccc(NC(=O)C2CCN(S(=O)(=O)c3ccc4c(c3)sc(=O)n4C)CC2)cc1Cl	978
Cc1ccc(C)c(N2C(=O)CN(S(C)(=O)=O)CC2(C)C(=O)NCc2ccc(Cl)cc2)c1 (centres undefined)	889
O=C(NCCN1CCOCC1)C1CCN(c2nccnc2Sc2ccccc2)CC1	627
Cc1cc(C)cc(NC(=O)C2CCCN(S(=O)(=O)c3cn(C(C)C)cn3)C2)c1 (centres undefined)	876
Cc1ccc(-c2nnc(-c3cccc(S(=O)(=O)NCC4CCCO4)c3)o2)cc1 (centres undefined)	918
O=C(Nc1ccc(N2CCOCC2)cc1)c1cn2c(n1)CSCC2	600
Cc1cc(N2CCCC2)nc(N2CCN(S(=O)(=O)c3ccc(Br)cc3)CC2)n1	820
c1ccc(-c2nnc(-c3ccccc3OCc3cn4ccccc4n3)o2)cc1	702
CCCn1c(-c2cccc(C(=O)NCc3c(C)cc(C)cc3C)c2)nc2cccnc21	979
CCc1ccc(S(=O)(=O)c2cnc(N3CCN(c4ccccc4F)CC3)nc2N)cc1	1200
Cc1cnc(C2CN(CC3CCCCC3)C2)n1Cc1ccccc1	600
O=C(Nc1cccc(Cl)c1)C1CCCN(S(=O)(=O)Cc2ccccc2)C1 (centres undefined)	1030
Cc1ccc(NC(=O)Cn2c(=O)n(-c3ccc(F)cc3)c(=O)c3c2cc(C)n3C)cc1C	888
COc1ccccc1NC(=O)C(C)n1nc(C)c2nn(-c3ccccc3)c(-n3cccc3)c2c1=O (centres undefined)	1130
CN1c2cc(F)ccc2C(=O)NC12CCN(C(=O)c1ccc3c(c1)OCO3)CC2	724
Cn1c(CNC(=O)C2(Cc3ccccc3)CCCCC(=O)N2)nc2ccccc21 (centres undefined)	630
COC(=O)c1sccc1S(=O)(=O)N1CCN(S(=O)(=O)C2CC2)CC1	717
O=S(=O)(NCC(O)c1ccc(C(F)(F)F)cc1)c1ccc2c(c1)CCCC2 (centres undefined)	984
CCC(=O)N1CCc2cc(C(=O)N3CCCCCC3)ccc21	770
Cc1ccc(NC(=O)Nc2ccc(NC(=O)N3CCCC(C(=O)NC(C)C)C3)cc2)cc1 (centres undefined)	760
O=C(C1CCCN(c2ncnc3c2nc2n3CCCCC2)C1)N(Cc1ccco1)C1CCCCC1 (centres undefined)	1020
Cn1nccc1C(=O)N1CCC(c2nc(-c3ccc(F)cc3)no2)CC1	811

SMILES	RP-LC retention time [s]
COc1c(C(=O)NC(C)C)sc2ccc(Cl)cc12	1060
O=C(NC1CC1)C1CCCN(C(=O)c2ccoc2)C1 (centres undefined)	584
Cc1cccc(NC(=O)CSc2nccc(N3CCN(c4cc(C)ccc4C)CC3)n2)c1	917
Cc1nn(CC(=O)N2CCN(c3ccc(F)cc3)CC2)c(=O)c2noc(C)c12	751
COc1ccc(OC)c(NC(=O)N2CCCn3nc(-c4cccs4)cc3C2)c1	867
Cc1nnc(-c2c(S(=O)(=O)NC3CCN(Cc4ccccc4)CC3)c(C)n(C)c2C)o1	602
O=C1CC(CNS(=O)(=O)c2ccc3c(c2)OCCO3)CN1c1ccc(Cl)cc1 (centres undefined)	788
O=C(Nc1cccc(F)c1)C1CCN(S(=O)(=O)c2cc(C(=O)N3CCCCCC3)cs2)CC1	939
Fc1ccc(Cn2cccc2-c2nc(-c3ccncc3)no2)cc1	1100
CCOc1ccc(-c2nc(NC(=O)c3c(F)cccc3F)sc2C)cc1	1110
COc1ccccc1OCC1c2ccsc2CCN1C(=O)CN(CC1CC1)C(=O)C1CC1 (centres undefined)	928
Cc1ccc(Sc2nccnc2N2CCCC(C(=O)NCCC(C)C)C2)cc1 (centres undefined)	1140
CCOc1nc2ccccc2nc1N1CCCC(C(=O)Nc2ccccc2)C1 (centres undefined)	1180
CCc1ccccc1NS(=O)(=O)c1cn(CC(C)C)c2ncccc12	1050
O=C(NCCC1=CCCCC1)C1CCCN(c2ccc3nncn3n2)C1 (centres undefined)	770
Cc1cc(C)c(NC(=O)Cn2c(C)nc3onc(C)c3c2=O)c(C)c1	814
Cc1ccc(-c2ccc(CNc3ncn[nH]3)o2)cc1Cl	731
CCn1nccc1C(=O)Nc1cc(-c2cc3cc(OC)ccc3n2CC)[nH]n1	846
Cc1nn(C)cc1CN1CC(F)(F)C[C@H]1c1nnc(-c2ccccc2)o1	784
CN1C(=O)c2cccn2CC1CNC(=O)Nc1ccc2c(c1)OCCO2 (centres undefined)	624
Cc1ccc(F)c(NC(=O)C2CCc3nc(N4CCOCC4)ncc3C2)c1 (centres undefined)	735
Cc1ccnc(N2CCC(C(=O)NCc3ccc(CN4CCCCCC4)o3)CC2)n1	567
O=C(CSc1ccc(-c2cccnc2)nn1)NCC1CCCO1 (centres undefined)	548

SMILES	RP-LC retention time [s]
CCOc1ccc(-c2cc3c(=O)n(Cc4nc(-c5ccc6c(c5)OCO6)no4)ncn3n2)cc1	1100
Cc1cc(F)ccc1NC(=O)C1CCN(S(=O)(=O)c2cc(C(=O)N3CCOCC3)cs2)CC1	759
CCN1CCN(c2cc(C)nc3nc(-c4ccc(C(C)(C)C)cc4)nn23)CC1	677
COc1ccc(-c2ccc(N3CCN(c4ccccn4)CC3)nn2)cc1S(=O)(=O)N1CCOCC1	572
Cn1c(=O)n([C@H]2CCN(S(=O)(=O)c3ccc(F)cc3)C2)c2ncccc21	805
O=C(NCc1cccnc1-c1ccc(F)cc1)c1cccs1	894
COc1ccccc1-c1noc(C2CCCN2C(=O)Nc2ccccc2Cl)n1 (centres undefined)	947
CN(CC1(C)CCOCC1)C(=O)NCc1cccc(F)c1	731
Cc1oc2ccn(Cc3cccc(F)c3)c(=O)c2c1C(=O)NC1CCCCCC1	1270
CCN1C(=O)c2cc(NC(=O)c3ccc(Br)o3)ccc2Oc2ccccc21	908
COC(=O)c1c(NCCCc2ccccc2)c2cc(F)ccc2[nH]c1=O	848
O=C(Nc1cccc2nsnc12)C1CCN(S(=O)(=O)N2CCCC2)CC1	862
CCc1nc(-c2csc(S(=O)(=O)N3CCC(C(=O)Nc4cccc(F)c4)CC3)c2)no1	1010
Cc1n[nH]c(C)c1S(=O)(=O)N1CCOCC1	582
Cn1c(=O)n(CCN2CCOCC2)c(=O)c2c1nc1n2CCCN1c1ccccc1	615
Cc1nccn1-c1ccc(=O)n(CCNC(=O)c2cccc(C(F)(F)F)c2)n1	551
CCc1ccc(Nc2nc(C(=O)NCCC3=CCCCC3)nc3ccccc23)cc1	1080
Cc1ccccc1C(=O)N1CC(C(=O)NCC(C)C)C(c2cccc(C(F)(F)F)c2)C1 (centres undefined)	907
CCc1cc(=O)n(CC(=O)Nc2cccc(Br)c2)c(N2CCOCC2)n1	831
O=C(c1ccc(OCC2CCCN2C(=O)COc2ccc(F)cc2)cc1)N1CCCC1 (centres undefined)	761
